Assay results taken from patent publication US11045457B2, “Piperidinyl-3-(aryloxy)propanamides and propanoates” (priority 2018, dated 2021).

Biological target: SSTR4 (Homo sapiens (Human), UniProt P31391)
Assay: Inhibition of forskolin stimulated cAMP in CHO-K1 cells overexpressing SSTR4
Format: cell-based
Details: for EC50: read-out: SSTR4 Activity pEC50 (converted)
Procedure: Inhibition of Forskolin Stimulated cAMP in Cells Overexpressing SSTR4
This cell-based assay measures the ability of compounds to inhibit forskolin stimulated cAMP in CHO-K1 cells overexpressing SSTR4. CHO-K1 cells overexpressing SSTR4 (CHO-SSTR4) are purchased from DiscoveRx (product code 95-0059C2). The CHO-SSTR4 cells are maintained in F12K media with 10% Fetal Bovine Serum (Hyclone), 1% Pen/Strep (Life Technologies), and 800 μg/mL G418 (Life Technologies). […] The next day, the culture media is removed from the cells and the cells are washed (added then removed) with Kreb's Ringer Buffer (ZenBio, KRB-1000 mL). […] The cells are incubated in […] for 30 minutes at room temperature. Cellular cAMP levels are detected with a HTRF LANCE Ultra cAMP kit (Perkin Elmer, catalog number TRF0264).
The assay is performed in accordance with the manufacturer's instructions. Five μL of diluted Eu-W8044 labeled streptavidin (dilution: 1:50 in cAMP Detection Buffer) is added to each well. Then 5 μL of diluted biotin cAMP (dilution: 1:150 in cAMP Detection Buffer) is added to each well. The plates are covered and allowed to incubate for 60 minutes at room temperature on a shaker. […] The pEC50 values are generated using Activity Base for Screening Data Management.

SSTR4, sequence (P31391 whole entry): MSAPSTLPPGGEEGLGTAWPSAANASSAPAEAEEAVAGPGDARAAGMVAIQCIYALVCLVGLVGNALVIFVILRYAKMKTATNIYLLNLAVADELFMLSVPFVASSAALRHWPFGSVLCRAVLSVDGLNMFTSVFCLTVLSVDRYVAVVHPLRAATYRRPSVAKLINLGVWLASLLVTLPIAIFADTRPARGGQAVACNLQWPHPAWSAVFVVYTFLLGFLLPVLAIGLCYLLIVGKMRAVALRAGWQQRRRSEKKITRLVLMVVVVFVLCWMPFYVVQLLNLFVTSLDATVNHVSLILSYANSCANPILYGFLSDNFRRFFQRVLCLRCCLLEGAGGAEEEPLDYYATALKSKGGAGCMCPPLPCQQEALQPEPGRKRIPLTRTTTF

SMILES	EC50	SSTR4 Activity pEC50
CC[C@H]1[C@H](NC(=O)C(C)(C)COc2ncccc2C(F)(F)F)CCN1C (relative stereo) [Example 149, trans-N-(2-ethyl-1-methylpyrrolidin-3-yl)-2,2-dimethyl-3-((3-(trifluoromethyl)pyridin-2-yl)oxy)propanamide]	126 nM	–
Cc1cccnc1OCC(C)(C)C(=O)NC1CCN(C)C1 (stereo not drawn) [Example 2, 2,2-dimethyl-3-((3-methylpyridin-2-yl)oxy)-N-(1-methylpyrrolidin-3-yl)propanamide]	–	6.3
C[C@H]1C[C@H](NC(=O)C(C)(C)COc2ncccc2OC(F)(F)F)CCN1C (relative stereo) [Example 135, trans-N-(1,2-dimethylpiperidin-4-yl)-2,2-dimethyl-3-((3-(trifluoromethoxy)pyridin-2-yl)oxy)propanamide]	25.1 nM	–
Cc1c(C#N)cccc1OCC(C)(C)C(=O)NC1CCN(C)CC1 [Example 75, 3-(3-cyano-2-methylphenoxy)-2,2-dimethyl-N-(1-methylpiperidin-4-yl)propanamide]	–	5.5
CN1CCC(NC(=O)C(C)(C)COc2ncccc2C(F)(F)F)C(F)C1 (stereo not drawn) [Example 113, N-(3-fluoro-1-methylpiperidin-4-yl)-2,2-dimethyl-3-((3-(trifluoromethyl)pyridin-2-yl)oxy)propanamide]	–	5.9
CN1CCC(NC(=O)C(C)(C)COc2cccc(F)c2)CC1 [Example 203, 3-(3-fluorophenoxy)-2,2-dimethyl-N-(1-methylpiperidin-4-yl)propanamide]	–	7.1
C[C@@H]1C[C@@H](NC(=O)C(C)(C)COc2ncccc2C(F)(F)F)CCN1C [Example 177, N-((2R,4S)-1,2-dimethylpiperidin-4-yl)-2,2-dimethyl-3-((3-(trifluoromethyl)pyridin-2-yl)oxy)propanamide]	–	6.9
Cc1cnc(OCC(C)(C)C(=O)NC2CCN(C)CC2)c(C(F)(F)F)c1 [Example 101, 2,2-dimethyl-3-((5-methyl-3-(trifluoromethyl)pyridin-2-yl)oxy)-N-(1-methylpiperidin-4-yl)propanamide]	–	7.3
Cc1cnc(OCC(C)(C)C(=O)NC2CCN(C)CC2)c(Cl)c1 [Example 82, 3-((3-chloro-5-methylpyridin-2-yl)oxy)-2,2-dimethyl-N-(1-methylpiperidin-4-yl)propanamide]	–	7.0
CN1CCC(NC(=O)C(C)(C)COc2ncccc2C#N)CC1 [Example 3, 3-((3-cyanopyridin-2-yl)oxy)-2,2-dimethyl-N-(1-methylpiperidin-4-yl)propanamide]	–	5.8
CN1CC(NC(=O)C(C)(C)COc2ncccc2C(F)(F)F)CC1(C)C (stereo not drawn) [Example 35, 2,2-dimethyl-3-((3-(trifluoromethyl)pyridin-2-yl)oxy)-N-(1,5,5-trimethylpyrrolidin-3-yl)propanamide]	–	6.5
CN1CCC(NC(=O)C(C)(C)COc2ncccc2OC(F)(F)F)CC12CC2 (stereo not drawn) [Example 174, 2,2-dimethyl-N-(4-methyl-4-azaspiro[2.5]octan-7-yl)-3-((3-(trifluoromethoxy)pyridin-2-yl)oxy)propanamide]	–	7.0
C[C@@H]1CN(C)CC[C@@H]1NC(=O)C(C)(C)COc1ncccc1OC(F)(F)F (racemic) [Example 14, cis-N-(1,3-dimethylpiperidin-4-yl)-2,2-dimethyl-3-((3-(trifluoromethoxy)pyridin-2-yl)oxy)propanamide]	79.4 nM	–
CN1CCC(NC(=O)C(C)(C)COc2ncncc2C2CC2)CC1 [Example 5, 3-((5-cyclopropylpyrimidin-4-yl)oxy)-2,2-dimethyl-N-(1-methylpiperidin-4-yl)propanamide]	–	6.8
CN1CCC(NC(=O)C(C)(C)COc2nccc(Cl)c2F)CC1 [Example 44, 3-((4-chloro-3-fluoropyridin-2-yl)oxy)-2,2-dimethyl-N-(1-methylpiperidin-4-yl)propanamide]	–	5.9
